From ChEMBL document CHEMBL5096165, “Histone deacetylase 2: A potential therapeutic target for cancer and neurodegenerative disorders” (Eur J Med Chem, 2021)

What was measured:
[1] = biological target: Histone deacetylase 9 (Homo sapiens, UniProt Q9UKV0)
Description: Inhibition of HDAC9 (unknown origin)

[2] = biological target: T1, Polyamine deacetylase HDAC10 (Homo sapiens, UniProt Q969S8)
T1 sequence (Q969S8 whole entry): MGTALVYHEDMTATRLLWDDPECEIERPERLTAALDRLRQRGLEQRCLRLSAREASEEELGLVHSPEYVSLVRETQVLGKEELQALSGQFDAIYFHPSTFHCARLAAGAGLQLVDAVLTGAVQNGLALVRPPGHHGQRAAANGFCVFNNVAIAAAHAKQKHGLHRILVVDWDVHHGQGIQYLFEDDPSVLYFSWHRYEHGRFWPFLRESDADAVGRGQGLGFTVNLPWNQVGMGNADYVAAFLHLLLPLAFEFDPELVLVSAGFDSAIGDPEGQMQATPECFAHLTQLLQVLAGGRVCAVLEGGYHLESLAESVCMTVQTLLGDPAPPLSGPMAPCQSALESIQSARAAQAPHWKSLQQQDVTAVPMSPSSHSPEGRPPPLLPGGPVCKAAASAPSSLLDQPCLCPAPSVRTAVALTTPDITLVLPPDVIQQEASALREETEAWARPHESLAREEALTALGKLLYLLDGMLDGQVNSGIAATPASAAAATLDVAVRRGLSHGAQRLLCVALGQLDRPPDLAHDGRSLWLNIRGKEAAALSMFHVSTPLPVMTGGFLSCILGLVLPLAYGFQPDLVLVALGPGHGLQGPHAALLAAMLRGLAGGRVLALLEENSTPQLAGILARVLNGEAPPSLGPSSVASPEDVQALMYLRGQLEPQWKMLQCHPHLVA
Description: Inhibition of HDAC10 (unknown origin)

[3] = biological target: Histone deacetylase 5 (Homo sapiens, UniProt Q9UQL6)
Sequence of Histone deacetylase 5 (Q9UQL6 whole entry): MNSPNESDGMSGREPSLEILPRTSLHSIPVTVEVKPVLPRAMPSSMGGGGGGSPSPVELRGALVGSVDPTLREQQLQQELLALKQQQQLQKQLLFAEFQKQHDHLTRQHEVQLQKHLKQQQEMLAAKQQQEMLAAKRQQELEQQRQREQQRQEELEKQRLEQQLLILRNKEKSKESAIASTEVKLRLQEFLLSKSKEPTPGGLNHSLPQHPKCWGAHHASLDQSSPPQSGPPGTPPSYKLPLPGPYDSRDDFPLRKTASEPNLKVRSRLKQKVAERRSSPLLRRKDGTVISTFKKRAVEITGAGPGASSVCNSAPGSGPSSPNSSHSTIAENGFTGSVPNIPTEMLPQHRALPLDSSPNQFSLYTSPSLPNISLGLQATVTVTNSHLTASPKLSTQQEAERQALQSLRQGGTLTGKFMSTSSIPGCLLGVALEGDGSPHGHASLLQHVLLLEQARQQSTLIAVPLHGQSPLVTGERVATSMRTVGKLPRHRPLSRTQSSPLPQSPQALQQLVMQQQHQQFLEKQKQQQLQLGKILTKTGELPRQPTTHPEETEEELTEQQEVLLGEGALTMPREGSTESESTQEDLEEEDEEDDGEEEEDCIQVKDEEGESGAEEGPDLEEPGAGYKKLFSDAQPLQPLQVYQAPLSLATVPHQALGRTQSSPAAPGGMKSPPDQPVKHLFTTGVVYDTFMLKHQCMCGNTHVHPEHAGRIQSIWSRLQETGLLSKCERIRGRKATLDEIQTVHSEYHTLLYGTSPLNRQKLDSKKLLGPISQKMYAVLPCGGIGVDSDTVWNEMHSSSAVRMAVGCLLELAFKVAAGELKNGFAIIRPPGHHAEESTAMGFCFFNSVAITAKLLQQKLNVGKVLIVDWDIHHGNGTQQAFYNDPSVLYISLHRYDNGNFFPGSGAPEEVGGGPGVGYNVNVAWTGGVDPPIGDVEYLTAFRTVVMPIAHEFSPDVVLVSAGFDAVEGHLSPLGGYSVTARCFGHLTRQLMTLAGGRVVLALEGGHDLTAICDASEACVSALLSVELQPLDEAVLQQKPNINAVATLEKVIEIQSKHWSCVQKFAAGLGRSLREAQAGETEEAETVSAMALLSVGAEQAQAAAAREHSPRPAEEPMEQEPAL
Description: Inhibition of HDAC5 (unknown origin)

Sequence of Histone deacetylase 9 (Q9UKV0 whole entry): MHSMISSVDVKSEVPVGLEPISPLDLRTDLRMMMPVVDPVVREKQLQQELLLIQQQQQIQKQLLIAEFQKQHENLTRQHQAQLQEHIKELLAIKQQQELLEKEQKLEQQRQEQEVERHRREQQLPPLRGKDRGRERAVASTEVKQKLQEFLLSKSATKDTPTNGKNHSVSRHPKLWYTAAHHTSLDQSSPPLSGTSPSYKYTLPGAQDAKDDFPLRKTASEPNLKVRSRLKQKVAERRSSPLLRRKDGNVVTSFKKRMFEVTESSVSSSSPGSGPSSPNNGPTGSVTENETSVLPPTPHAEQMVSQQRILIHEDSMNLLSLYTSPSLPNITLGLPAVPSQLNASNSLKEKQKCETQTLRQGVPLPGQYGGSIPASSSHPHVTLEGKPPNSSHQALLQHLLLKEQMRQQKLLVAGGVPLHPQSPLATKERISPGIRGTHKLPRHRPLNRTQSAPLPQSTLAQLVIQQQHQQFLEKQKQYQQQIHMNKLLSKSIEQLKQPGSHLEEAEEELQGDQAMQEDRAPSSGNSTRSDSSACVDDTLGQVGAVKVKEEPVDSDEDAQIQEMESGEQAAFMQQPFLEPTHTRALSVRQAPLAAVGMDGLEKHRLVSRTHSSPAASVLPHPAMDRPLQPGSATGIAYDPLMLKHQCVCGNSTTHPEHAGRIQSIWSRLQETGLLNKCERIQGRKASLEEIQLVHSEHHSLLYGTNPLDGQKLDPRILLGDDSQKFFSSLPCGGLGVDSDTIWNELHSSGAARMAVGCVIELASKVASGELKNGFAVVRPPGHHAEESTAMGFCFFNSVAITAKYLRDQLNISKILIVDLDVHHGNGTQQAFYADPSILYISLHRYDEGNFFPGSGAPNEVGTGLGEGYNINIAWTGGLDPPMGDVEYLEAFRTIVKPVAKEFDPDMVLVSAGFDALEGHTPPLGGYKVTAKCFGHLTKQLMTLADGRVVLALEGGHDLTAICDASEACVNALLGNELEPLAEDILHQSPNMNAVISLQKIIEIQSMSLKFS

Row | IC50 [1] [µM] | Compound | IC50 [2] [µM] | IC50 [3] [µM]
1 | 50 | Cn1cc(-c2ccc(S(=O)(=O)n3ccc(/C=C/C(=O)Nc4ccccc4N)c3)cc2)cn1 [DOMATINOSTAT] | 21 | –
2 | – | Cn1cc(CNCC2CCN(c3ncc(C(=O)NO)cn3)CC2)c2ccccc21 [QUISINOSTAT] | 0.00046 | 0.00369
